The subject of experiment [1] is orientation hypermotility. The experiment is described as follows: Sedative action (orientation hypermotility, mouse). The class given is in vivo, female NMRI mice. Conditions: oral; for ED50: 0.5 h, 50% decrease in orientation hypermotility vs control, measured from 30 min after dosing for 30 min, read-out: Sedative action mouse ED 50; for sedative action compared with clozapine: in words, action of reference clozapine. On the procedure:
4 to 8 groups each comprising 3 female NMRI mice receive the substances by oral administration. The orientation hypermotility induced by a new environment is determined photoelectrically 30 min after the administration of the substance for a period of 30 min.
The ED50 is determined as the dose which brings about a decrease in the orientation hypermotility of 50% compared with placebo-treated control animals.

The subject of experiment [2] is L-5-Hydroxytryptamine (L-5-HTP). Put plainly: L-5-HTP antagonism (serotonin antagonism). The class given is in vivo, rats. To be noted: oral, rat; for ED50: 1 h before L-5-HTP (316 mg/kg i.p.), 50% mean reduction in score, read-out: Antiserotoninergic action rat ED; for antiserotoninergic action compared with clozapine: in words, action of reference clozapine. On the procedure: 2. L-5-HTP antagonism (serotonin antagonism)
L-5-Hydroxytryptamine (L-5-HTP), a serotonin prodrug, causes in rats (316 mg/kg i.p.) a state of agitation which is characterized by signs such as head-shaking, tremor and movements of the forepaws. The animals are observed for 1 h after administration of L-5-HTP, and the signs are scored every 10 min. The test substances are administered orally 1 h before L-5-HTP; n/dose=6. The ED50 is calculated as the dose which brings about a mean reduction in the score of a control group by 50%.

In experiment [3] the target is T1, dopamine D2 receptor (Bos taurus, UniProt P20288).
T1 construct: bovine nucleus caudatus membranes; from tissue; host or cells: bovine caudate nucleus membranes
The experiment is described as follows: Affinity to dopamine D2 receptor, competitive assay, 3H-spiperon. The class given is binding, bovine. On the procedure: (§1) 4. In vitro determination of the affinity to dopamine D1 and D2 receptors by means of competitive assays
(§2) The non-specific binding was determined using 10 μM (+)-butaclamol or using 1 μM haloperidol. After incubation at 30° C. for 60 min, the mixtures were filtered through glass fiber filters (GF/B, Whatman) and the amount of radioligand retained on the filter was determined by liquid scintillation measurement.

Experiment [4] concerns physostigmine. The experiment is described as follows: Anticholinergic action (protection from lethal physostigmine). To be noted: oral, mouse, 30 min before physostigmine 0.825 mg/kg s.c.; protects 50% from death; read-out: Anticholinergic mouse ED 50. The class given is in vivo, female NMRI mice. On the procedure: 3. Anticholinergic action
Groups of 10 female NMRI mice receive physostigmine in a lethal dose (0.825 mg/kg) subcutaneously. The test substances are administered orally 30 min before the physostigmine administration. The ED50 is determined as the dose of substance which protects 50% of the animals from death due to physostigmine.

In experiment [5] the target is T2, dopamine D1 receptor (Bos taurus, UniProt Q95136).
T2 construct: bovine nucleus caudatus membranes; from tissue; host or cells: bovine caudate nucleus membranes
Put plainly: Affinity to dopamine D1 receptor, competitive assay, 3H-SCH 23390. The class given is binding, bovine. On the procedure: as §1, §2

Setting [6] is: bovine nucleus caudatus membranes, pH 7.4, 30° C., 60 min, 0.2 nM radioligand, read-out: Affinity to D2 receptor, Inhibition of 3H-spiperon binding, Ki.
Setting [7] is: bovine nucleus caudatus membranes, pH 7.4, 30° C., 60 min, 1 nM radioligand, read-out: Affinity to D1 receptor, Inhibition of 3H-SCH 23 390 binding, Ki.

Molecules are shown by their SMILES. Where two headings read alike, the source gives them in different places.

T2 sequence (Q95136 whole entry): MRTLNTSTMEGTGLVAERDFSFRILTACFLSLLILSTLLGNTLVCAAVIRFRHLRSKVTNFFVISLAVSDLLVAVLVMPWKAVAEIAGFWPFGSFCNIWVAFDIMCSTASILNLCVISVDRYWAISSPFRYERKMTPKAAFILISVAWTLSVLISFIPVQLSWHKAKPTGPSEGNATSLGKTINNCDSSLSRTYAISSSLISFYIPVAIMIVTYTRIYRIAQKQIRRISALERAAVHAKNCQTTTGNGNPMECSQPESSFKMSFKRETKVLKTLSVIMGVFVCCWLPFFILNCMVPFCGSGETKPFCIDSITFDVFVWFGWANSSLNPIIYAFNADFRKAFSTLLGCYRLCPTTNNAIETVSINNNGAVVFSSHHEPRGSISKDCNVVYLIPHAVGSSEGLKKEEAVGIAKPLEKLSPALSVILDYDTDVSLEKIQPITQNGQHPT
T1 sequence (P20288 whole entry): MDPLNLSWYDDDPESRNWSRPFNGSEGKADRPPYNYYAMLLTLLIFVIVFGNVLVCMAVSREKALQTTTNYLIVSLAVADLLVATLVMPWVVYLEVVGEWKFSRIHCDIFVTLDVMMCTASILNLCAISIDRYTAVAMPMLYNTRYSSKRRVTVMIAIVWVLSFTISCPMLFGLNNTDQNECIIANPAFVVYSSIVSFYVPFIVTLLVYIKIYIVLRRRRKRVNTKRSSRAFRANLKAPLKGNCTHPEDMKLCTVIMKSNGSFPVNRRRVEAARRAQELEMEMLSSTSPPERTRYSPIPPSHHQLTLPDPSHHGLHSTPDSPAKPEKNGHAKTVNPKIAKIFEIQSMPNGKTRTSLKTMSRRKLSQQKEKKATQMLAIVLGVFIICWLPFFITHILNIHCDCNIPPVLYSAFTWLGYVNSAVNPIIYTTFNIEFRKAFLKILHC

As to `CN1CCN(C2=Nc3cc(Cl)ccc3Nc3ccccc32)CC1` [Clozapine, clozapine, reference compound], the ED50 was 3.8 mg/kg in experiment [1] and 6.3 mg/kg in experiment [2].

The Ki is a measure of affinity in units of concentration, obtained from inhibition or displacement. Take `CN1CCN(C2=Nc3ccccc3/C(=C/C#N)c3cn(C)cc32)CC1` [Example 1a, 10-Cyanomethylene-2-methyl-4-(4-methyl-1-piperazinyl)pyrrolo[4,3-e]benzazepine]: the ED50 was 2.96 mg/kg in experiment [1], > 21.5 mg/kg in experiment [4] and 1.18 mg/kg in experiment [2]. Moreover, the “sedative action compared with clozapine” value in experiment [1] was “reached or exceeded”. In addition, the figures for the Ki in experiment [3] and in experiment [5] were ~2000 nM and 10.5 nM, respectively. In experiment [2], the “antiserotoninergic action compared with clozapine” value is “reached or exceeded”.

In the case of `CN1CCN(C2=Nc3cc(Cl)ccc3C(=CC#N)c3cn(C)cc32)CC1` [Example 3, (E),(Z)-7-Chloro-10-cyanomethylene-2-methyl-4-(4-methyl-1-piperazinyl)pyrrolo[4,3-e]benzazepine], the values for the ED50 in experiment [1], in experiment [4] and in experiment [2] were 0.82 mg/kg, 17.5 mg/kg and 0.2 mg/kg, respectively. The “sedative action compared with clozapine” value in experiment [1] is “reached or exceeded”. The values for the Ki in experiment [3] (setting [6]) and in experiment [5] (setting [7]) were ~1000 nM and 20 nM, respectively. Also, the “antiserotoninergic action compared with clozapine” value in experiment [2] was “reached or exceeded”.

As to `CN1CCN(C2=Nc3cc(Cl)ccc3/C(=C/C#N)c3cn(C)cc32)CC1` [Example 3a, (E)-7-Chloro-10-cyanomethylene-2-methyl-4-(4-methyl-1-piperazinyl)pyrrolo[4,3-e]benzazepine], the figures for the ED50 in experiment [1] and in experiment [2] were 0.67 mg/kg and 0.29 mg/kg, respectively.

Consider `CN1CCN(C2=Nc3ccccc3C(=CC#N)c3cn(Cc4ccccc4)cc32)CC1` [Example 9, (E),(Z)-10-Cyanomethylene-2-benzyl-4-(4-methyl-1-piperazinyl)pyrrolo[4,3-e]benzazepine], for which the ED50 in experiment [1] is 29.8 mg/kg; in experiment [4] it was > 46.4 mg/kg; in experiment [2] it was 46.4 mg/kg. The values for the inhibition constant Ki in experiment [3] (setting [6]) and in experiment [5] (setting [7]) were ~1000 nM and 3.4 nM, respectively.

Regarding `CN1CCN(C2=Nc3cc(Cl)ccc3C(=CC#N)c3cn(Cc4ccccc4)cc32)CC1` [Example 11, (E),(Z)-7-Chloro-2-benzyl-10-cyanomethylene-4-(4-methyl-1-piperazinyl)pyrrolo[4,3-e]benzazepine], the values for the ED50 in experiment [1] and in experiment [4] were 35 mg/kg and > 100 mg/kg, respectively. Moreover, the inhibitory constant (Ki) in experiment [3] (setting [6]) is ~1000 nM; in experiment [5] (setting [7]) it was 12.8 nM.

For `CCN1CCN(C2=Nc3ccccc3C(=CC#N)c3cn(C)cc32)CC1` [Example 12, (E),(Z)-10-Cyanomethylene-2-methyl-4-(4-ethyl-1-piperazinyl)pyrrolo[4,3-e]benzazepine], the values for the ED50 in experiment [1], in experiment [4] and in experiment [2] were 4.7 mg/kg, 16.7 mg/kg and 3.3 mg/kg, respectively. For the same molecule, the Ki in experiment [3] (setting [6]) is ~2000 nM; in experiment [5] (setting [7]), 20.8 nM. The “antiserotoninergic action compared with clozapine” value in experiment [2] is “reached or exceeded”.

(Values after US4866057A, “4-substituted 10-cyanomethylenepyrrolo[4,3-e]-benzazepines” (BASF Aktiengesellschaft, priority 1987, dated 1989).)
